Where two headings read alike, the source gives them in different places.
Key:
[1] = system: ER α-glucosidases I and II; assay: Cellular free oligosaccharide (FOS) assay in HL60 cells; type: cell-based, human; settings: 24 h, mono- and tri-glucosylated FOS
[2] = in vitro; type: in vitro ADME; settings: human, Caco-2
[3] = in vitro; type: in vitro ADME; settings: human, plasma
[4] = in vitro; type: in vitro ADME; settings: dog, plasma
[5] = in vitro; type: in vitro ADME; settings: human, microsomes
[6] = in vitro; type: in vitro ADME; settings: rat, microsomes
[7] = in vitro; type: in vitro ADME; settings: mouse, microsomes
[8] = target: T1, CYP1A2 (Homo sapiens, UniProt P05177); assay: CYP inhibition in human liver microsomes, CYP1A2; type: in vitro ADME
T1 sequence (P05177 1-516): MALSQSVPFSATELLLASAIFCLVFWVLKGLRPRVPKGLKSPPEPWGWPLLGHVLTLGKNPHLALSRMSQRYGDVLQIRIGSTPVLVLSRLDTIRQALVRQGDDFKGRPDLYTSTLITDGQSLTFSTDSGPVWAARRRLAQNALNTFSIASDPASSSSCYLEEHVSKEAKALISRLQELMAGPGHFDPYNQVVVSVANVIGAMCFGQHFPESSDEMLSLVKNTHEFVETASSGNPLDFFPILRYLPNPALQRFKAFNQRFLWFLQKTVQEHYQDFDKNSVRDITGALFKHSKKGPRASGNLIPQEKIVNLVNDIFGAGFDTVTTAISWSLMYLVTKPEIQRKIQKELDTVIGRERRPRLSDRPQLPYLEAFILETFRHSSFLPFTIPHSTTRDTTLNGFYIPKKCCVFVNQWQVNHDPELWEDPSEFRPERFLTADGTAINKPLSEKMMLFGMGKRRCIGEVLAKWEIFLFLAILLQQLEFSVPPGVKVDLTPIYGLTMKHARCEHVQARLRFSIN

[9] = target: CYP2D6 (Homo sapiens, UniProt P10635); assay: CYP inhibition in human liver microsomes, CYP2D6; type: in vitro ADME
[10] = target: T2, hERG (Homo sapiens, UniProt Q12809); assay: Functional hERG assay, automated whole-cell patch clamp in CHO cells; type: cell-based
T2 construct: expressed in transfected cells; host or cells: CHO

[11] = system: DENV2 strain S221; type: in vivo, AG129 mice
[12] = Maximum tolerated dose in guinea pigs; type: in vivo, Hartley guinea pigs; settings: for MTD at 7 days: female, Hartley, guinea pig, in vivo, single bolus
[13] = Mouse pharmacokinetics; type: in vivo, Swiss Albino mice; settings: male, Swiss Albino
[14] = Guinea pig pharmacokinetics; type: in vivo, Hartley guinea pigs; settings: Hartley; for half-life: plasma, guinea pigs

T2 sequence (Q12809 whole entry): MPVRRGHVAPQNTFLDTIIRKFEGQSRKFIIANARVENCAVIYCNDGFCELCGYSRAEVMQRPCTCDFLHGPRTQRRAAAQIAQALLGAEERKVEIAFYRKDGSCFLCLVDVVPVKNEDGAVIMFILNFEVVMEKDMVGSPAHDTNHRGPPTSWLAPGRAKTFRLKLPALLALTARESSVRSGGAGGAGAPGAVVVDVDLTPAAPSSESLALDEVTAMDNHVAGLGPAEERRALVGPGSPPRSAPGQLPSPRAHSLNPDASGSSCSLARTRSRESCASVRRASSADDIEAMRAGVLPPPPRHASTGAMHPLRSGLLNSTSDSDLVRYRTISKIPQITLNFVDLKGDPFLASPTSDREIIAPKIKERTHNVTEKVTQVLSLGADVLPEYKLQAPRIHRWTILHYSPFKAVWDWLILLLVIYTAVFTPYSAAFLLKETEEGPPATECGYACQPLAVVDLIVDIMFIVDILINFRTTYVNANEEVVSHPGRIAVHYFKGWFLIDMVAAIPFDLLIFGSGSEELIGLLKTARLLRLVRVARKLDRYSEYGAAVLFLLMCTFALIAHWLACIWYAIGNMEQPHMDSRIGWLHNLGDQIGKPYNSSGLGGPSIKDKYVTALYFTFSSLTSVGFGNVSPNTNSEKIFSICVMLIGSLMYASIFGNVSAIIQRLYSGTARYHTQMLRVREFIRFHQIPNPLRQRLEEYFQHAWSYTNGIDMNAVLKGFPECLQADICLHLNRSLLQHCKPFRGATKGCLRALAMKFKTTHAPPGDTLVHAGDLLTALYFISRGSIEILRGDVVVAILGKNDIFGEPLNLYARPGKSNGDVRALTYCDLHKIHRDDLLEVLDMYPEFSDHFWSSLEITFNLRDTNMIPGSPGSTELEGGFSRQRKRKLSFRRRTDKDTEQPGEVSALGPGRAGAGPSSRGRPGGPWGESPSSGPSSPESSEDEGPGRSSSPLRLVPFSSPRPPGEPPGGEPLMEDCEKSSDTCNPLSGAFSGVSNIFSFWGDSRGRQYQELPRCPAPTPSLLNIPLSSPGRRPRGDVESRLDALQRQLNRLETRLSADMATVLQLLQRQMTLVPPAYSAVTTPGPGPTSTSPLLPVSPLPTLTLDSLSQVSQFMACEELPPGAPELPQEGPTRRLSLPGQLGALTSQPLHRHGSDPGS
Sequence of CYP2D6 (P10635 whole entry): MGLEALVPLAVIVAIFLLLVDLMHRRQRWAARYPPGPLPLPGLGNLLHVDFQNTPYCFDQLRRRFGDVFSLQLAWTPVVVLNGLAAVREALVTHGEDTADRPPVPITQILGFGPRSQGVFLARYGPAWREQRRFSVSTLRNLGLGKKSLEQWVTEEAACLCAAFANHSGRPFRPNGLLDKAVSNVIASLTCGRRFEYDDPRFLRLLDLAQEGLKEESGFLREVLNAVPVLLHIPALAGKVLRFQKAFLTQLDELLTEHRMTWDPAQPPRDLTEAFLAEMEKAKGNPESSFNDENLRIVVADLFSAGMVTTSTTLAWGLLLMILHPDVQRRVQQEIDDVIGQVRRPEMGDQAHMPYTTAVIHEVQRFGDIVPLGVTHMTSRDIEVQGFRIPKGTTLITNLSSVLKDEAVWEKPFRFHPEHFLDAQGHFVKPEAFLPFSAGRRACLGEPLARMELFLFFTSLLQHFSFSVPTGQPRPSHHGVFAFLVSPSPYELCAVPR

## OC[C@@H]1[C@@H](O)[C@H](O)[C@@H](O)CN1CCCCCCCCC1CCCO1 (some centres unmarked) [UV-12]
[1]
  inhibition of ER α-glucosidase enzymes in cell-based FOS assay: inhibited
[2]
  efflux ratio at 10 µM: 4
[3]
  fraction unbound at 6 h, 10 μM: 0.32
[4]
  fraction unbound at 6 h, 10 μM: 0.28
[5]
  Liver microsome metabolic stability CLintr: <0.6 mL/min/g liver
  half-life at 0.5 µM: > 30 min
[5]; 0.5 h, 0.5 µM
  parent drug remained after 30 min: 100%
[6]
  Liver microsome metabolic stability CLintr: <0.6 mL/min/g liver
  half-life at 0.5 µM: > 30 min
[6]; 0.5 h, 0.5 µM
  parent drug remained after 30 min: 100%
[7]
  Liver microsome metabolic stability CLintr: <0.6 mL/min/g liver
  half-life at 0.5 µM: > 30 min
[7]; 0.5 h, 0.5 µM
  parent drug remained after 30 min: 100%
[8]
  IC50: > 100 µM
[9]
  IC50: > 100 µM
[10]; human, CHO cells stably transfected with hERG, 30 μM, read-out: inhibition of hERG current
  inhibition at 30 µM: 18.2%
[10]; human, CHO cells stably transfected with hERG, 100 μM, read-out: inhibition of hERG current
  inhibition at 100 µM: 4.6%
[10]; human, CHO cells stably transfected with hERG, 300 μM, read-out: inhibition of hERG current
  inhibition at 300 µM: 19.1%
[10]; patch clamp, CHO-hERG, read-out: hERG Inhibition
  IC50: > 300 µM
[11]; 20 mg/kg PO TID 7 days from 1 h before challenge
  animals protected (survival): 100%
[11]; 100 mg/kg PO TID 7 days from 1 h before challenge
  animals protected (survival): 100%
[12]; IM 20-100 mg/kg, IV 10-80 mg/kg
  clinical signs and mortality, 7 days observation: no clinical signs of toxicity or mortality
[12]; IV route
  MTD at 7 days: > 80 mg/kg
[12]; im, intramuscular route
  MTD at 7 days: > 100 mg/kg
[13]; in vivo
  Cmax: 8880 to 12600 ng/mL
  bioavailability: 77%
[13]; in vivo, iv
  CL as % of mouse liver blood flow: 31%
  Vss relative to total body water: 3 fold
[13]; in vivo, iv, 10 mg/kg
  AUC(0-inf): 5910 ng·h/mL
  AUC(0-t): 5900 ng·h/mL
  Cmax: 8880 ng/mL
  Vd: 1.98 L/kg
  clearance: 28.2 mL/min/kg
[13]; in vivo, po, 100 mg/kg
  AUC(0-inf): 45500 ng·h/mL
  AUC(0-t): 43100 ng·h/mL
  Cmax: 12600 ng/mL
  Tmax: 30 min
[13]; plasma, mice, IV 10 mg/kg
  half-life: 115 min
[14]; in vivo
  Cmax: 8850 to 11600 ng/mL
  Tmax: 15 to 30 min
[14]; female, in vivo, im, 100 mg/kg
  AUC(0-inf): 19200 ng·h/mL
  AUC(0-t): 19100 ng·h/mL
  Cmax: 11600 ng/mL
  Tmax: 15 min
  bioavailability: 109%
[14]; female, in vivo, iv
  Vss relative to normal body water: > 8 fold
[14]; female, in vivo, iv, 25 mg/kg
  AUC(0-inf): 4400 ± 599 ng·h/mL
  AUC(0-t): 4370 ± 583 ng·h/mL
  Cmax: 8860 ng/mL
  Vd: 5.14 ± 0.64 L/kg
  clearance: 95.9 ± 12.7 mL/min/kg
[14]; female, in vivo, sc, 100 mg/kg
  AUC(0-inf): 23100 ng·h/mL
  AUC(0-t): 23000 ng·h/mL
  Cmax: 11000 ng/mL
  Tmax: 30 min
  bioavailability: 131%
[14]; female, IM 100 mg/kg
  half-life: 119 ± 54.6 min
[14]; female, IV 25 mg/kg
  half-life: 84 ± 5.4 min
[14]; female, SC 100 mg/kg
  half-life: 133 ± 22.2 min

— paper PMC4452912 (Viruses, 2015)
